Assay results taken from US6914045B2, “Glycopeptide antibiotics” (Wyeth Holdings Corporation, priority 2001, dated 2005).
Converted amounts (≈) assume the structure as drawn. Read-outs that look alike come from different tables or passages of the source.

How the values were obtained:
Experiment in all cases: in vitro antibacterial evaluation, MIC by broth dilution
Assay type in all cases: cell-based
Escherichia coli = tested on: Escherichia coli
Streptococcus sp. = tested on: Streptococcus sp.
How it was run: (§1)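 Broth dilution per NCCLS M7-A2 in Mueller-Hinton II medium, inoculum 5×10^5 CFU/mL, antibiotic range 64-0.06 μg/mL. MIC taken as lowest concentration inhibiting growth; Gram-positive panel includes recent clinical isolates resistant to methicillin, penicillin and/or vancomycin.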

Enterococcus sp. = tested on: Enterococcus sp.
How it was run: as §1

Staphylococcus sp. = tested on: Staphylococcus sp.
How it was run: as §1

[1] = broth dilution, 18 hours at 35° C.

Q: With `CC(c1ccccc1)C1NC(=O)CNC(=O)C(CO)NC(=O)C(C(O)C2CNC(=N)N2C2OC(CO)C(O)C(O)C2O)NC(=O)C(C(O)C2CNC(=N)N2)NC(=O)C(Cc2ccc(OC3OC(CO)C(OC4OC5COC6(CCCCCCCCCCCC6)OC5C(O)C4O)C(O)C3O)cc2)NC1=O` (centres unmarked) [Example 210] as the compound, how does the “MIC Escherichia coli (ATCC 25922)” value (Escherichia coli; 18 hours at 35° C.) read?
A: >64 µg/mL

Q: What about the “MIC Escherichia coli (GC 4559)” value (Escherichia coli; 18 hours at 35° C.) of the same compound?
A: >64 µg/mL

Q: And the “MIC Escherichia coli (GC 4560)” value (Escherichia coli; 18 hours at 35° C.)?
A: 64 µg/mL (≈ 43.4 µM)

Q: What about the “MIC Streptococcus agalactiae (GC 4564)” value (Streptococcus sp.; [1]) of the same compound?
A: 0.25 µg/mL (≈ 0.17 µM)

Q: And the “MIC Streptococcus pneumoniae (ATCC 6301)” value (Streptococcus sp.; [1])?
A: 0.25 µg/mL (≈ 0.17 µM)

Q: What about the “MIC Streptococcus pneumoniae (GC 1894)” value (Streptococcus sp.; [1]) of the same compound?
A: <0.06 µg/mL

Q: And the “MIC Streptococcus pneumoniae (GC 4565)” value (Streptococcus sp.; [1])?
A: <0.06 µg/mL

Q: And the “MIC Streptococcus pyogenes (GC 4563)” value (Streptococcus sp.; [1])?
A: 2 µg/mL (≈ 1.36 µM)

Q: What about the “MIC Streptococcus pneumoniae (ATCC 6301)” value (Streptococcus sp.; broth dilution, inoculum 5×10^5 CFU/mL, 18 hours at 35° C., strain ATCC 6301) of the same compound?
A: 0.25 µg/mL (≈ 0.17 µM)

Q: What about the “MIC Streptococcus pneumoniae (GC 1894)” value (Streptococcus sp.; broth dilution, inoculum 5×10^5 CFU/mL, 18 hours at 35° C., strain GC 1894) of the same compound?
A: <0.06 µg/mL

Q: What about the “MIC Streptococcus pyogenes (GC 4563)” value (Streptococcus sp.; broth dilution, inoculum 5×10^5 CFU/mL, 18 hours at 35° C., strain GC 4563) of the same compound?
A: 2 µg/mL (≈ 1.36 µM)

Q: What about the “MIC Streptococcus agalactiae (GC 4564)” value (Streptococcus sp.; broth dilution, inoculum 5×10^5 CFU/mL, 18 hours at 35° C., strain GC 4564) of the same compound?
A: 0.25 µg/mL (≈ 0.17 µM)

Q: And the “MIC Streptococcus pneumoniae (GC 4565)” value (Streptococcus sp.; broth dilution, inoculum 5×10^5 CFU/mL, 18 hours at 35° C., strain GC 4565)?
A: <0.06 µg/mL

Q: What about the “MIC Enterococcus avium (GC 4558)” value (Enterococcus sp.; [1]) of the same compound?
A: 16 µg/mL (≈ 10.9 µM)

Q: And the “MIC Enterococcus faecalis (ATCC 29212)” value (Enterococcus sp.; [1])?
A: 32 µg/mL (≈ 21.7 µM)

Q: What about the “MIC Enterococcus faecalis (GC 2242)” value (Enterococcus sp.; [1]) of the same compound?
A: 16 µg/mL (≈ 10.9 µM)

Q: What about the “MIC Enterococcus faecalis (GC 2691)” value (Enterococcus sp.; [1]) of the same compound?
A: 8 µg/mL (≈ 5.43 µM)

Q: And the “MIC Enterococcus faecalis (GC 3059)” value (Enterococcus sp.; [1])?
A: 32 µg/mL (≈ 21.7 µM)

Q: What about the “MIC Enterococcus faecalis (GC 4552)” value (Enterococcus sp.; [1]) of the same compound?
A: 32 µg/mL (≈ 21.7 µM)

Q: What about the “MIC Enterococcus faecalis (GC 4553)” value (Enterococcus sp.; [1]) of the same compound?
A: 16 µg/mL (≈ 10.9 µM)

Q: What about the “MIC Enterococcus faecalis (GC 4554)” value (Enterococcus sp.; [1]) of the same compound?
A: 32 µg/mL (≈ 21.7 µM)

Q: What about the “MIC Enterococcus faecalis (GC 6189)” value (Enterococcus sp.; [1]) of the same compound?
A: 16 µg/mL (≈ 10.9 µM)

Q: What about the “MIC Enterococcus faecium (GC 2243)” value (Enterococcus sp.; [1]) of the same compound?
A: 32 µg/mL (≈ 21.7 µM)

Q: And the “MIC Enterococcus faecium (GC 4556)” value (Enterococcus sp.; [1])?
A: 32 µg/mL (≈ 21.7 µM)

Q: And the “MIC Enterococcus faecium (GC 4557)” value (Enterococcus sp.; [1])?
A: 32 µg/mL (≈ 21.7 µM)

Q: What about the “MIC Enterococcus faecalis (ATCC 29212)” value (Enterococcus sp.; broth dilution, inoculum 5×10^5 CFU/mL, 18 hours at 35° C., strain ATCC 29212) of the same compound?
A: 32 µg/mL (≈ 21.7 µM)

Q: And the “MIC Enterococcus faecalis (GC 2242)” value (Enterococcus sp.; broth dilution, inoculum 5×10^5 CFU/mL, 18 hours at 35° C., strain GC 2242)?
A: 16 µg/mL (≈ 10.9 µM)

Q: And the “MIC Enterococcus faecium (GC 2243)” value (Enterococcus sp.; broth dilution, inoculum 5×10^5 CFU/mL, 18 hours at 35° C., strain GC 2243)?
A: 32 µg/mL (≈ 21.7 µM)

Q: And the “MIC Enterococcus faecalis (GC 2691)” value (Enterococcus sp.; broth dilution, inoculum 5×10^5 CFU/mL, 18 hours at 35° C., strain GC 2691)?
A: 8 µg/mL (≈ 5.43 µM)

Q: And the “MIC Enterococcus faecalis (GC 3059)” value (Enterococcus sp.; broth dilution, inoculum 5×10^5 CFU/mL, 18 hours at 35° C., strain GC 3059)?
A: 32 µg/mL (≈ 21.7 µM)

Q: And the “MIC Enterococcus faecalis (GC 4552)” value (Enterococcus sp.; broth dilution, inoculum 5×10^5 CFU/mL, 18 hours at 35° C., strain GC 4552)?
A: 32 µg/mL (≈ 21.7 µM)

Q: What about the “MIC Enterococcus faecalis (GC 4553)” value (Enterococcus sp.; broth dilution, inoculum 5×10^5 CFU/mL, 18 hours at 35° C., strain GC 4553) of the same compound?
A: 16 µg/mL (≈ 10.9 µM)

Q: What about the “MIC Enterococcus faecalis (GC 4554)” value (Enterococcus sp.; broth dilution, inoculum 5×10^5 CFU/mL, 18 hours at 35° C., strain GC 4554) of the same compound?
A: 32 µg/mL (≈ 21.7 µM)

Q: What about the “MIC Enterococcus faecium (GC 4556)” value (Enterococcus sp.; broth dilution, inoculum 5×10^5 CFU/mL, 18 hours at 35° C., strain GC 4556) of the same compound?
A: 32 µg/mL (≈ 21.7 µM)

Q: What about the “MIC Enterococcus faecium (GC 4557)” value (Enterococcus sp.; broth dilution, inoculum 5×10^5 CFU/mL, 18 hours at 35° C., strain GC 4557) of the same compound?
A: 32 µg/mL (≈ 21.7 µM)

Q: And the “MIC Enterococcus avium (GC 4558)” value (Enterococcus sp.; broth dilution, inoculum 5×10^5 CFU/mL, 18 hours at 35° C., strain GC 4558)?
A: 16 µg/mL (≈ 10.9 µM)

Q: And the “MIC Enterococcus faecalis (GC 6189)” value (Enterococcus sp.; broth dilution, inoculum 5×10^5 CFU/mL, 18 hours at 35° C., strain GC 6189)?
A: 16 µg/mL (≈ 10.9 µM)

Q: And the “MIC Staphylococcus aureus (ATCC 29213)” value (Staphylococcus sp.; strain ATCC 29213, broth dilution, 18 hours at 35° C.)?
A: 32 µg/mL (≈ 21.7 µM)

Q: And the “MIC Staphylococcus aureus (GC 1131)” value (Staphylococcus sp.; strain GC 1131, broth dilution, 18 hours at 35° C.)?
A: 32 µg/mL (≈ 21.7 µM)

Q: And the “MIC Staphylococcus aureus (GC 3051)” value (Staphylococcus sp.; strain GC 3051, broth dilution, 18 hours at 35° C.)?
A: 32 µg/mL (≈ 21.7 µM)

Q: What about the “MIC Staphylococcus aureus (GC 3053)” value (Staphylococcus sp.; strain GC 3053, broth dilution, 18 hours at 35° C.) of the same compound?
A: 32 µg/mL (≈ 21.7 µM)

Q: And the “MIC Staphylococcus aureus (GC 4541)” value (Staphylococcus sp.; strain GC 4541, broth dilution, 18 hours at 35° C.)?
A: 32 µg/mL (≈ 21.7 µM)

Q: What about the “MIC Staphylococcus aureus (GC 4542)” value (Staphylococcus sp.; strain GC 4542, broth dilution, 18 hours at 35° C.) of the same compound?
A: 32 µg/mL (≈ 21.7 µM)

Q: What about the “MIC Staphylococcus aureus-SMITH (GC 4543)” value (Staphylococcus sp.; strain GC 4543, broth dilution, 18 hours at 35° C.) of the same compound?
A: 32 µg/mL (≈ 21.7 µM)

Q: What about the “MIC Staphylococcus aureus (GC 4544)” value (Staphylococcus sp.; strain GC 4544, broth dilution, 18 hours at 35° C.) of the same compound?
A: 32 µg/mL (≈ 21.7 µM)

Q: What about the “MIC Staphylococcus aureus (GC 4545)” value (Staphylococcus sp.; strain GC 4545, broth dilution, 18 hours at 35° C.) of the same compound?
A: 32 µg/mL (≈ 21.7 µM)

Q: What about the “MIC Staphylococcus haemolyticus (GC 4546)” value (Staphylococcus sp.; strain GC 4546, broth dilution, 18 hours at 35° C.) of the same compound?
A: 32 µg/mL (≈ 21.7 µM)

Q: What about the “MIC Coagulase Negative Staphylococcus (GC 4547)” value (Staphylococcus sp.; strain GC 4547, broth dilution, 18 hours at 35° C.) of the same compound?
A: 32 µg/mL (≈ 21.7 µM)

Q: And the “MIC Coagulase Negative Staphylococcus (GC 4548)” value (Staphylococcus sp.; strain GC 4548, broth dilution, 18 hours at 35° C.)?
A: 32 µg/mL (≈ 21.7 µM)

Q: And the “MIC Coagulase Negative Staphylococcus (GC 4549)” value (Staphylococcus sp.; strain GC 4549, broth dilution, 18 hours at 35° C.)?
A: 8 µg/mL (≈ 5.43 µM)

Q: And the “MIC Coagulase Negative Staphylococcus (GC 4551)” value (Staphylococcus sp.; strain GC 4551, broth dilution, 18 hours at 35° C.)?
A: 32 µg/mL (≈ 21.7 µM)

Q: And the “MIC Coagulase Negative Staphylococcus (GC 6257)” value (Staphylococcus sp.; strain GC 6257, broth dilution, 18 hours at 35° C.)?
A: 32 µg/mL (≈ 21.7 µM)

Q: Which results are given for `CC(c1ccccc1)C1NC(=O)CNC(=O)C(CO)NC(=O)C(C(O)C2CNC(=N)N2C2OC(CO)C(O)C(O)C2O)NC(=O)C(C(O)C2CNC(=N)N2)NC(=O)C(Cc2ccc(OC3OC(CO)C(OC4OC(CO)C(O)C(O)C4O)C(O)C3O)c(I)c2)NC1=O` (stereo not drawn) [Example 6, Cyclo[glycyl-β-methylphenylalanyl-O-(4-O-hexolpyranosylhexolpyranosyl)-3-iodo-tyrosyl-3-(2-iminoimidazolidin-4-yl)seryl-3-(3-hexolpyranosyl-2-iminoimidazolidin-4-yl)serylseryl]]?
A: MIC Escherichia coli (ATCC 25922) (Escherichia coli): >128 µg/mL; MIC Escherichia coli (GC 4559) (Escherichia coli): >128 µg/mL; MIC Escherichia coli (GC 4560) (Escherichia coli): >128 µg/mL; MIC Streptococcus agalactiae (GC 4564) (Streptococcus sp.): >128 µg/mL; MIC Streptococcus pneumoniae (GC 4565) (Streptococcus sp.): >128 µg/mL; MIC Streptococcus pyogenes (ID-3187) (Streptococcus sp.): >128 µg/mL; MIC Enterococcus avium (GC 4558) (Enterococcus sp.): >128 µg/mL; MIC Enterococcus faecalis (ATCC 29212) (Enterococcus sp.): >128 µg/mL; MIC Enterococcus faecalis (GC 2242) (Enterococcus sp.): >128 µg/mL; MIC Enterococcus faecalis (GC 4552) (Enterococcus sp.): >128 µg/mL; MIC Enterococcus faecalis (GC 4553) (Enterococcus sp.): >128 µg/mL; MIC Enterococcus faecalis (GC 4554) (Enterococcus sp.): >128 µg/mL; MIC Enterococcus faecium (GC 2243) (Enterococcus sp.): >128 µg/mL; MIC Enterococcus faecium (GC 4556) (Enterococcus sp.): >128 µg/mL; MIC Enterococcus faecium (GC 4557) (Enterococcus sp.): >128 µg/mL; MIC Coagulase Negative Staphylococcus (GC 4547) (Staphylococcus sp.): >128 µg/mL; MIC Coagulase Negative Staphylococcus (GC 4548) (Staphylococcus sp.): >128 µg/mL; MIC Coagulase Negative Staphylococcus (GC 4549) (Staphylococcus sp.): >128 µg/mL; MIC Coagulase Negative Staphylococcus (GC 4551) (Staphylococcus sp.): >128 µg/mL; MIC Coagulase Negative Staphylococcus (ID-3941) (Staphylococcus sp.): >128 µg/mL; MIC Staphylococcus aureus (ATCC 29213) (Staphylococcus sp.): >128 µg/mL; MIC Staphylococcus aureus (GC 1131) (Staphylococcus sp.): >128 µg/mL; MIC Staphylococcus aureus (GC 4541) (Staphylococcus sp.): >128 µg/mL; MIC Staphylococcus aureus (GC 4542) (Staphylococcus sp.): >128 µg/mL; MIC Staphylococcus aureus (GC 4544) (Staphylococcus sp.): >128 µg/mL; MIC Staphylococcus aureus (GC 4545) (Staphylococcus sp.): >128 µg/mL; MIC Staphylococcus aureus-SMITH (GC 4543) (Staphylococcus sp.): >128 µg/mL; MIC Staphylococcus haemolyticus (GC 4546) (Staphylococcus sp.): >128 µg/mL
